For one assay, the target named is T1, CHK1 (kinase domain) (Homo sapiens, UniProt O14757).
T1 construct: a solution containing 1 nM of CHK1 (kinase domain)
T1 sequence (O14757 9-265 limits assumed): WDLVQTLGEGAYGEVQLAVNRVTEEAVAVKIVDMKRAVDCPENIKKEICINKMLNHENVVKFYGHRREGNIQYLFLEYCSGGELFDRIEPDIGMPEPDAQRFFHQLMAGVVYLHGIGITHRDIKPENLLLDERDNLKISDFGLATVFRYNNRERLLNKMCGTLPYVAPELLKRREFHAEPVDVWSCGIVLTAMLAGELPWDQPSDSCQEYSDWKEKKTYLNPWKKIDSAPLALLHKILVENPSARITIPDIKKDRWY
The assay can be described thus: CHK1 Ki determination, spectrophotometric coupled (pyruvate kinase/lactate dehydrogenase) assay. It is filed as biochemical. As to conditions: CHK-1 kinase domain; for percent inhibition (where no Ki data is available): inhibitor concentration not given; for Ki: 150 uM ATP, 125 uM Syntide 2. The procedure, abridged:
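The CHK1 kinase domain was pre-incubated with compound for 15 min, and the reaction was started with 125 uM Syntide 2 and 150 uM ATP. ADP formation was coupled through pyruvate kinase/lactate dehydrogenase to NADH oxidation, read as the A340 decrease. Kiapp was fitted with a tight-binding equation that accounts for enzyme concentration and ATP Km; some entries are % inhibition.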

The next assay deals with HeLa cells. The assay can be described thus: Histone H3 (Ser10) phosphorylation ELISA, abrogation of camptothecin-induced G2 arrest (CHK-1 cellular assay). The assay is classed as cell-based. Particulars: HeLa cells, camptothecin 8 hrs, then compound with nocodozole 16 hours, read-out: EC50. The procedure: The Histone H3 phosphorylation ELISA assay detects cells entering mitosis and represents the primary in vitro cell-based assay used to measure the cellular potency of compounds in abrogating the G2 check point induced by DNA damage in HeLa cells or MiaPaCa cells. The candidate substances were assayed for potency in their ability to inhibit camptothecin-induced G2 arrest, as measured by an increase in Histone H3 phosphorylation on Ser10, a marker of entry into mitosis.
Tissue culture plates were seeded with HeLa cells or MiaPaCa Cells and allowed to attach overnight. The cells were then treated with camptothecin to induce DNA damage for 8 hrs. Candidate substances or diluent were then added in the presence of nocodozole for 16 hours. […] The fresh whole cell lysates were then thawed and added to the ELISA plate with shaking for 3 hours. Between all subsequent steps plates were washed 4 times with PBST. Biotinylated phospho Histone H3 (ser10) detection antibody was added for 1 hour, followed by addition of horseradish peroxidase-linked streptavidin secondary antibody for 1 hour. Color development of the antibody was performed with addition of TMB substrate and incubation for 2 minutes on a plate shaker. […] EC50 values were calculated by sigmoid curve fitting using a four-parameter analysis.
Under the “Ki” column, data entries in the format of “%” are percent inhibition data where no Ki data is available. Data entry under the “EC50” column with an * are data obtained using Mia Paca-2 cells rather than HeLa cells. Data is not available where noted as n/a.
Background: ELISA stands for enzyme-linked immunosorbent assay.

Where two headings read alike, the source gives them in different places.

As for `c1ccn2c(-c3cncc(N[C@H]4CCCNC4)n3)cnc2c1` [Example 3, 6-Imidazo[1,2-a]pyridin-3-yl-N-[(3S)-piperidin-3-yl]pyrazin-2-amine], the “percent inhibition (where no Ki data is available)” value on CHK1 (kinase domain) was found to be 0%. Besides, in the assay on HeLa cells (Homo sapiens, HeLa), the EC50 (in general, the midpoint of the concentration-response curve) is 0.486 µM.
Consider `CC(Oc1ccn2c(-c3cncc(N[C@@H]4CCCNC4)n3)cnc2c1)C(F)(F)F` (stereo partly drawn) [Example 118, N-[(3R)-piperidin-3-yl]-6-[7-(2,2,2-trifluoro-1-methylethoxy)imidazo[1,2-a]pyridin-3-yl]pyrazin-2-amine], for which the inhibition constant (Ki) (commonly a measure of affinity in units of concentration, obtained from inhibition or displacement) at CHK1 (kinase domain) was found to be 0.00527 µM. The EC50 in the assay with HeLa cells (Homo sapiens, HeLa) came to 1.11 µM.
In the same order, the values of `Cc1ncc(-c2cncc(N[C@@H]3CCCNC3)n2)n1C` [Example 64, 6-(1,2-dimethyl-1H-imidazol-5-yl)-N-[(3R)-piperidin-3-yl]pyrazin-2-amine] are 1.11 µM and at least 10 µM.
Turning to `C[C@H]1NCCC[C@@H]1Nc1cncc(-c2cnc3ccccn23)n1` [Example 132, 6-imidazo[1,2-a]pyridin-3-yl-N-[(2R,3S)-2-methylpiperidin-3-yl]pyrazin-2-amine], the “percent inhibition (where no Ki data is available)” value on CHK1 (kinase domain) was found to be 18.3%^. In addition, the EC50 in the assay on HeLa cells (Homo sapiens, HeLa) was at least 10 µM.
Turning to `c1cn2c(-c3cncc(N[C@@H]4CCNC4)n3)cnc2s1` [Example 49, 6-Imidazo[2,1-b][1,3]thiazol-5-yl-N-[(3R)-pyrrolidin-3-yl]pyrazin-2-amine], the affinity on CHK1 (kinase domain), expressed as Ki, was 0.0117 µM. The EC50 with HeLa cells (Homo sapiens, HeLa) was 0.142 µM.
In the same order, the values of `FC[C@@H]1C[C@@H](Nc2cncc(-c3cnn4cc(Cl)ccc34)n2)CN1` [Example 79, 6-(6-chloropyrazolo[1,5-a]pyridin-3-yl)-N-[(3R,5S)-5-(fluoromethyl)pyrrolidin-3-yl]pyrazin-2-amine] are 0.00568 µM and 0.184 µM.
For `FC1(F)CCNC[C@@H]1Nc1cncc(-c2cnc3ccccn23)n1` [Example 249, N-[(3S)-4,4-difluoropiperidin-3-yl]-6-(imidazo[1,2-a]pyridin-3-yl)pyrazin-2-amine], in that order: 0.0045 µM and 0.0322 µM.
Compound `Cc1cn2c(-c3cncc(N[C@@H]4CCCN[C@H]4C)n3)cnc2s1` [Example 97, 6-(2-methylimidazo[2,1-b][1,3]thiazol-5-yl)-N-[(2S,3R)-2-methylpiperidin-3-yl]pyrazin-2-amine] came in with a Ki on CHK1 (kinase domain) of 0.00862 µM. In addition, the EC50 in the assay on HeLa cells was found to be 0.151 µM.
With `C[C@@H]1CC[C@@H](Nc2cncc(-c3cnc4cnccn34)n2)CN1` [Example 146, 6-imidazo[1,2-a]pyrazin-3-yl-N-[(3R,6R)-6-methylpiperidin-3-yl]pyrazin-2-amine], the Ki on CHK1 (kinase domain) was 0.019 µM. Moreover, in the assay with HeLa cells (Homo sapiens, HeLa), the 50% effective concentration (EC50) was determined as 0.493 µM.
The compound `CC(C)c1cn2c(-c3cncc(N[C@@H]4CCCN[C@@H]4C)n3)cnc2s1` [Example 111, 6-(2-isopropylimidazo[2,1-b][1,3]thiazol-5-yl)-N-[(2R,3R)-2-methylpiperidin-3-yl]pyrazin-2-amine] came in with a Ki at CHK1 (kinase domain) of 0.00363 µM. In addition, the EC50 in the assay with HeLa cells was determined as 0.0224 µM.
Compound `Cc1ccc2ncc(-c3cncc(N[C@@H]4CCNC4)n3)n2c1` [Example 50, 6-(6-Methylimidazo[1,2-a]pyridin-3-yl)-N-[(3R)-pyrrolidin-3-yl]pyrazin-2-amine] returned a Ki at CHK1 (kinase domain) of 0.0174 µM. For the same compound, the EC50 in the assay on HeLa cells (Homo sapiens, HeLa) was determined as 0.148 µM.
On CHK1 (kinase domain), `C[C@H]1NCCC[C@H]1Nc1cncc(-c2cnc3ccc(F)cn23)n1` [Example 94, 6-(6-fluoroimidazo[1,2-a]pyridin-3-yl)-N-[(2R,3R)-2-methylpiperidin-3-yl]pyrazin-2-amine] came in with an inhibition constant (Ki) of 0.0206 µM. Besides, in the assay on HeLa cells, the half-maximal effective concentration (EC50) was determined as 0.37 µM.
Consider `CCc1ccn2c(-c3cncc(N[C@@H]4CCCNC4)n3)cnc2c1` [Example 42, 6-(7-Ethylimidazo[1,2-a]pyridin-3-yl)-N-[(3R)-piperidin-3-yl]pyrazin-2-amine], for which the affinity at CHK1 (kinase domain) corresponds to a Ki of 0.007 µM. The EC50 in the assay with HeLa cells (Homo sapiens, HeLa) worked out at 0.0293 µM.
In the same order, the values of `C[C@@H]1CNC[C@@H]1Nc1cncc(-c2cnc3cc(C(N)=O)ccn23)n1` [Example 191, 3-(6-{[(3R,4R)-4-methylpyrrolidin-3-yl]amino}pyrazin-2-yl)imidazo[1,2-a]pyridine-7-carboxamide] are 0.0047 µM and 5.07 µM.
In the same order, the values of `CC1(COc2ccc3c(c2)ncn3-c2cncc(N[C@@H]3CCCNC3)n2)COC1` [Example 47, 6-{5-[(3-Methyloxetan-3-yl)methoxy]-1H-benzimidazol1-yl}-N-[(3R)-piperidin-3-yl]pyrazin-2-amine] are 0.0246 µM and 0.0522 µM.
As to `C[C@@H]1CNC[C@@H]1Nc1cncc(-c2cnc3cc(-c4cnn(C)c4)ccn23)n1` [Example 209, 6-[7-(1-methyl-1H-pyrazol-4-yl)imidazo[1,2-a]pyridin-3-yl]-N-[(3R,4R)-4-methylpyrrolidin-3-yl]pyrazin-2-amine], on CHK1 (kinase domain), the inhibitory constant (Ki) is 0.0013 µM. Further, in the assay on HeLa cells (Homo sapiens, HeLa), the EC50 was 0.123 µM.
The compound `CCc1cn2c(-c3cncc(N[C@@H]4CCCN[C@H]4C)n3)cnc2s1` [Example 109, 6-(2-ethylimidazo[2,1-b][1,3]thiazol-5-yl)-N-[(2S,3R)-2-methylpiperidin-3-yl]pyrazin-2-amine] had a Ki on CHK1 (kinase domain) of 0.0284 µM. Besides, the EC50 in the assay on HeLa cells is 0.19 µM.
Regarding `c1ccn2ncc(-c3cncc(N[C@@H]4CCCNC4)n3)c2c1` [Example 6, N-[(3R)-piperidin-3-yl]-6-pyrazolo[1,5-a]pyridin-3-ylpyrazin-2-amine], the Ki on CHK1 (kinase domain) was found to be 0.00254 µM. The EC50 with HeLa cells (Homo sapiens, HeLa) amounted to 0.0318 µM.
In the same order, the values of `Fc1ccc2ncc(-c3cncc(N[C@H]4CNC[C@H]4F)n3)n2c1` [Example 90, 6-(6-fluoroimidazo[1,2-a]pyridin-3-yl)-N-[(3S,4R)-4-fluoropyrrolidin-3-yl]pyrazin-2-amine] are 0.0705 µM and at least 10 µM.
For `CC(C)Oc1ccc2c(c1)ncn2-c1cncc(N[C@@H]2CCCNC2)n1` [Example 215, N-[(3R)-piperidin-3-yl]-6-[5-(propan-2-yloxy)-1H-benzimidazol-1-yl]pyrazin-2-amine], in that order: 0.00678 µM and 0.0358 µM.
Compound `CC(C)[C@@H]1CNC[C@@H]1Nc1cncc(-c2cnc3ccccn23)n1` [Example 194, 6-(imidazo[1,2-a]pyridin-3-yl)-N-[(3R,4R)-4-(propan-2-yl)pyrrolidin-3-yl]pyrazin-2-amine] had a Ki at CHK1 (kinase domain) of 0.0136 µM. In addition, the EC50 in the assay with HeLa cells (Homo sapiens, HeLa) is 0.00776 µM.
In the same order, the values of `Cc1cn2c(-c3cncc(N[C@@H]4CC[C@H](C)NC4)n3)cnc2s1` (relative stereo) [Example 62, Cis 6-(2-Methylimidazo[2,1-b][1,3]thiazol-5-yl)-N-(6-methylpiperidin-3-yl)pyrazin-2-amine] are 0.0735 µM and 0.694 µM.
For `CC(C)OCCOc1ccn2c(-c3cncc(N[C@@H]4CCNC4)n3)cnc2c1` [Example 213, 6-{7-[2-(propan-2-yloxy)ethoxy]imidazo[1,2-a]pyridin-3-yl}-N-[(3R)-pyrrolidin-3-yl]pyrazin-2-amine], in that order: 0.00358 µM and at least 10 µM.
For `C[C@H]1NCCC[C@H]1Nc1cncc(-c2cnc3cc(C#N)ccn23)n1` [Example 262, 3-(6-{[(2R,3R)-2-methylpiperidin-3-yl]amino}pyrazin-2-yl)imidazo[1,2-a]pyridine-7-carbonitrile], in that order: 0.0564 µM and 0.303 µM.
In the case of `C[C@@H]1C[C@@H](Nc2cncc(-c3cnn4cc(Cl)ccc34)n2)CN1` [Example 143, 6-(6-chloropyrazolo[1,5-a]pyridin-3-yl)-N-[(3R,5R)-5-methylpyrrolidin-3-yl]pyrazin-2-amine], at CHK1 (kinase domain), the affinity, expressed as Ki, was 0.00111 µM. Further, the EC50 in the assay on HeLa cells (Homo sapiens, HeLa) came to 0.119 µM.
On CHK1 (kinase domain), `OC[C@@H]1CNC[C@@H]1Nc1cncc(-c2cnn3cc(Cl)ccc23)n1` [Example 201, [(3R,4R)-4-{[6-(6-chloropyrazolo[1,5-a]pyridin-3-yl)pyrazin-2-yl]amino}pyrrolidin-3-yl]methanol] showed a Ki of 0.00488 µM. Further, the EC50 with HeLa cells (Homo sapiens, HeLa) is 0.0489 µM.
In the same order, the values of `CCc1cn2c(-c3cncc(N[C@@H]4CC[C@H](C)NC4)n3)cnc2s1` [Example 103, 6-(2-ethylimidazo[2,1-b][1,3]thiazol-5-yl)-N-[(3R,6S)-6-methylpiperidin-3-yl]pyrazin-2-amine] are 0.0265 µM and 0.0696 µM.
`Cc1cn2c(-c3cncc(N[C@H]4CCCN[C@H]4C)n3)cnc2s1` [Example 175, 6-(2-methylimidazo[2,1-b][1,3]thiazol-5-yl)-N-[(2S,3S)-2-methylpiperidin-3-yl]pyrazin-2-amine]: the affinity at CHK1 (kinase domain), expressed as Ki, was 0.0137 µM. In the assay with HeLa cells (Homo sapiens, HeLa), the EC50 was 0.197 µM.
